pEC50: −log10 of the molar value.
Assays:
Format in all cases: cell-based
[1] = system: Wnt activity (Sp5-Luc reporter, SW480 colon carcinoma cells); assay: Screening assay for Wnt activity: Sp5-Luc reporter gene assay in SW480 cells; conditions: Homo sapiens; for pEC50: SW480 Sp5-Luc reporter, overnight incubation; for inhibition at 10 µM: SW480, read-out: percent inhibition at 10 μM
How it was run: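 SW480 colon carcinoma cells stably carrying Sp5 promoter (eight TCF/LEF sites)-driven firefly luciferase, plated at 4,000 cells/well in 1% FBS medium and incubated overnight at 37° C. Luminescence normalised to DMSO-only cells; EC50 from four-parameter variable-slope nonlinear regression.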

[2] = system: primary human mesenchymal stem cells (hMSCs); assay: Induction of chondrogenesis in hMSCs (nodule imaging, Rhodamine B / Nile Red); conditions: 6 days; for Emax: relative to TGF-β3 (10 ng/mL) positive control, read-out: Max. Activity as % TGF-β3 activity; for EC50: concentration required to induce 50% levels of chondrogenesis vs TGF-β3, read-out: Conc (nM) of 50% TGF-β3 activity
Excerpt: Representative compounds were screened using primary human mesenchymal stem cells (hMSCs) to determine their ability to induce chondrogenesis (process by which cartilage is developed).
Primary human mesenchymal stem cells (hMSCs) were purchased from Lonza (Walkersville, Md.) and expanded in Mesenchymal Stem Cell Growth Media (Lonza). Cells between passage 3 and 6 were used for the experiments.
Area of nodules in each well was normalized to the average of 3 DMSO treated wells on the same plate using Excel (Microsoft Inc.). The normalized averages (fold change over DMSO) of 2 or 3 replicate wells for each compound concentration were calculated. Due to solubility limitations of some of the compounds, curve fitting was incomplete leading to inaccurate EC50 determinations.
Using TGF-β3 as a positive control, the concentration of representative compounds required to induce 50% levels of chondrogenesis is reported. In addition, the maximum activity of each compound and the respective dose that each compound reached maximum chondrogenesis activity is reported.

[3] = system: SW480 colon cancer cells; assay: Cell viability assay (CellTiter-Blue) in SW480 colon cancer cells; conditions: Homo sapiens; for pEC50: 96 h, SW480 cell viability, four days incubation; for inhibition at 10 µM: SW480, read-out: percent inhibition at 10 μM
How it was run: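 Fluorescence from resazurin reduced to resorufin by metabolically active cells was the read-out, taken after ~3 h with CellTiter-Blue.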

[4] = system: Primary human fibroblasts derived from IPF patients (LL29 cells); assay: Inhibition of the fibrotic process: αSMA staining in TGF-β1-treated LL29 fibroblasts; conditions: Fibroblast; for pEC50: 96 h, LL29 cells, TGF-β1 20 ng/mL, 4 days, % αSMA-positive cells; for inhibition at 10 µM: read-out: percent inhibition at 10 μM
How it was run: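 LL29 IPF-patient lung fibroblasts plated in F12 with 1% FBS, treated with TGF-β1 plus compound; TGF-β1/DMSO wells served as controls. After 4 days incubation, SYTOX green (1 μM final) added for 30 min at room temperature; αSMA staining used as fibrosis read-out.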

[5] = system: IL-6 (THP-1 cells); assay: IL-6 inhibition in THP-1 monocytes (HTRF); conditions: Homo sapiens; for pEC50: IL-6 inhibition, THP-1 cells, HTRF, 10-point dose-response starting from 10 μM; for inhibition at 10 µM: THP-1, read-out: percentage in parentheses printed under EC50 >10
How it was run: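 THP-1 cells serum-reduced (1% FBS, 24 h), plated 5000/well, stimulated with 500 ng/mL […] after 2 h and incubated a further 22 h at 37 °C. Secreted IL-6 quantified by HTRF (665/620 nm ratio), normalized to DMSO; EC50 from four-parameter fit, duplicates.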

pEC50 [1]	pEC50 [3]	pEC50 [5]	EC50 [2]	SMILES	Emax [2]	pEC50 [4]	inhibition at 10 µM [1]	inhibition at 10 µM [3]	inhibition at 10 µM [5]	inhibition at 10 µM [4]
5.47	5.64	5.67	–	c1cc(-c2cncc3[nH]c(-c4n[nH]c5ccc(-c6cncc(CN7CCCC7)c6)cc45)cc23)ccn1 [Compound 126, 3-(4-(Pyridin-4-yl)-1H-pyrrolo[2,3-c]pyridin-2-yl)-5-(5-(pyrrolidin-1-ylmethyl)pyridin-3-yl)-1H-indazole]	48%	5.83	–	–	–	–
5.84	5.86	7.51	–	c1cc2cc(-c3n[nH]c4ccc(-c5cncc(CNCC6CCCC6)c5)cc34)[nH]c2cn1 [Compound 277, 1-(5-(3-(1H-Pyrrolo[2,3-c]pyridin-2-yl)-1H-indazol-5-yl)pyridin-3-yl)-N-(cyclopentylmethyl)methanamine]	49%	5.86	–	–	–	–
< 5.00	< 5.00	5.99	100 nM	CCCC(=O)Nc1cncc(-c2ccc3[nH]nc(-c4cc5c(-c6ccncc6)cncc5[nH]4)c3c2)c1 [Compound 129, N-(5-(3-(4-(Pyridin-4-yl)-1H-pyrrolo[2,3-c]pyridin-2-yl)-1H-indazol-5-yl)pyridin-3-yl)butyramide]	124%	5.21	25.5%	15.5%	–	–
6.06	< 5.00	5.35	10 nM	Nc1cncc(-c2ccc3[nH]nc(-c4cc5c(-c6ccccc6F)cncc5[nH]4)c3c2)c1 [Compound 59, 5-(3-(4-(2-Fluorophenyl)-1H-pyrrolo[2,3-c]pyridin-2-yl)-1H-indazol-5-yl)pyridin-3-amine]	58%	5.54	–	27.9%	–	–
5.84	6.25	6.30	300 nM	CN(C)c1cncc(-c2ccc3[nH]nc(-c4cc5c(-c6ccoc6)cncc5[nH]4)c3c2)c1 [Compound 315, 5-(3-(4-(Furan-3-yl)-1H-pyrrolo[2,3-c]pyridin-2-yl)-1H-indazol-5-yl)-N,N-dimethylpyridin-3-amine]	69%	5.82	–	–	–	–
< 5.00	5.80	< 5.00	2700 nM	CN(C)Cc1cncc(-c2ccc3[nH]nc(-c4cc5c(-c6cccc(F)c6)cncc5[nH]4)c3c2F)c1 [Compound 993, 1-(5-(4-Fluoro-3-(4-(3-fluorophenyl)-1H-pyrrolo[2,3-c]pyridin-2-yl)-1H-indazol-5-yl)pyridin-3-yl)-N,N-dimethylmethanamine]	114%	5.77	46.8%	–	18.1%	–
6.42	6.55	7.34	2700 nM	CC(C)CC(=O)Nc1cncc(-c2ccc3[nH]nc(-c4cc5c(N6CCCCC6)cncc5[nH]4)c3c2)c1 [Compound 170]	113%	6.26	–	–	–	–
5.74	5.36	6.30	–	c1ncc(-c2ccc3[nH]nc(-c4cc5c(N6CCCCC6)cncc5[nH]4)c3c2)cc1CN1CCCC1 [Compound 182, 3-(4-(Piperidin-1-yl)-1H-pyrrolo[2,3-c]pyridin-2-yl)-5-(5-(pyrrolidin-1-ylmethyl)pyridin-3-yl)-1H-indazole]	25%	5.62	–	–	–	–
5.43	5.98	5.43	–	CN(C)Cc1cncc(-c2cc(F)c3[nH]nc(-c4cc5c(-c6cccc(F)c6)cncc5[nH]4)c3c2)c1 [Compound 991, 1-(5-(7-Fluoro-3-(4-(3-fluorophenyl)-1H-pyrrolo[2,3-c]pyridin-2-yl)-1H-indazol-5-yl)pyridin-3-yl)-N,N-dimethylmethanamine]	38%	5.91	–	–	–	–
6.34	6.01	7.66	900 nM	CCCC(=O)Nc1cncc(-c2ccc3[nH]nc(-c4cc5ccncc5[nH]4)c3c2)c1 [Compound 269, N-(5-(3-(1H-Pyrrolo[2,3-c]pyridin-2-yl)-1H-indazol-5-yl)pyridin-3-yl) butyramide]	152%	6.39	–	–	–	–
5.98	5.66	5.94	–	CN(C)Cc1cncc(-c2ccc3[nH]nc(-c4cc5c(-c6ccncc6)cncc5[nH]4)c3c2)c1 [Compound 125]	18%	5.61	–	–	–	–
< 5.00	5.33	5.12	100 nM	CCNCc1cncc(-c2ccc3[nH]nc(-c4cc5c(-c6ccccc6F)cncc5[nH]4)c3c2)c1 [Compound 62, N-((5-(3-(4-(2-Fluorophenyl)-1H-pyrrolo[2,3-c]pyridin-2-yl)-1H-indazol-5-yl)pyridin-3-yl)methyl)ethanamine]	86%	5.01	51%	–	–	–
5.76	5.54	5.25	–	c1ncc(-c2ccc3[nH]nc(-c4cc5c(N6CCCCC6)cncc5[nH]4)c3c2)cn1 [Compound 195, 3-(4-(Piperidin-1-yl)-1H-pyrrolo[2,3-c]pyridin-2-yl)-5-(pyrimidin-5-yl)-1H-indazole]	38%	5.97	–	–	–	–
6.80	6.13	7.13	2700 nM	Fc1cccc(-c2cncc3[nH]c(-c4n[nH]c5ccc(-c6cncc(CN7CCC(F)(F)C7)c6)cc45)cc23)c1 [Compound 26, 5-(5-((3,3-Difluoropyrrolidin-1-yl)methyl)pyridin-3-yl)-3-(4-(3-fluorophenyl)-1H-pyrrolo[2,3-c]pyridin-2-yl)-1H-indazole]	87%	6.49	–	–	–	–
6.51	6.31	6.98	100 nM	c1cncc(-c2ccc3[nH]nc(-c4cc5c(-c6cccnc6)cncc5[nH]4)c3c2)c1 [Compound 88, 5-(Pyridin-3-yl)-3-(4-(pyridin-3-yl)-1H-pyrrolo[2,3-c]pyridin-2-yl)-1H-indazole]	58%	< 5.00	–	–	–	0%
6.26	5.96	6.70	–	CS(=O)(=O)NCc1cc(F)cc(-c2cncc3[nH]c(-c4n[nH]c5ccc(-c6cncc(NC(=O)C7CCC7)c6)cc45)cc23)c1 [Compound 497, N-(5-(3-(4-(3-Fluoro-5-(methylsulfonamidomethyl)phenyl)-1H-pyrrolo[2,3-c]pyridin-2-yl)-1H-indazol-5-yl)pyridin-3-yl)cyclobutanecarboxamide]	15%	5.27	–	–	–	–
< 5.00	< 5.00	< 5.00	2700 nM	c1cncc(-c2cncc3[nH]c(-c4n[nH]c5ccc(-c6cncnc6)cc45)cc23)c1 [Compound 111, 3-(4-(pyridin-3-yl)-1H-pyrrolo[2,3-c]pyridin-2-yl)-5-(pyrimidin-5-yl)-1H-indazole]	58%	< 5.00	14.5%	7.5%	42.4%	46.5%
7.35	7.17	7.77	900 nM	O=C(Nc1cncc(-c2ccc3[nH]nc(-c4cc5c(-c6cccc(F)c6)cncc5[nH]4)c3c2)c1)C1CC1 [Compound 20, N-(5-(3-(4-(3-Fluorophenyl)-1H-pyrrolo[2,3-c]pyridin-2-yl)-1H-indazol-5-yl)pyridin-3-yl)cyclopropanecarboxamide]	94%	6.91	–	–	–	–
5.54	< 5.00	< 5.00	–	Cc1ncc(-c2ccc3[nH]nc(-c4cc5c(-c6ccncc6)cncc5[nH]4)c3c2)n1C [Compound 573, 5-(1,2-Dimethyl-1H-imidazol-5-yl)-3-(4-(pyridin-4-yl)-1H-pyrrolo[2,3-c]pyridin-2-yl)-1H-indazole]	28%	5.67	–	30.3%	11%	–

From patent US20180228780A1, “3-(1H-PYRROLO[2,3-C]PYRIDIN-2-YL)-1H-INDAZOLES AND THERAPEUTIC USES THEREOF” (Samumed, LLC, priority 2015, published 2018)
